Laboratory results from article PMC10847513, “Plastid ancestors lacked a complete Entner-Doudoroff pathway, limiting plants to glycolysis and the pentose phosphate pathway” (Nature Communications, 2024).

Legend:
E. coli EDD = target: T1, E. coli EDD (Escherichia coli, UniProt P0ADF6); test: LCMS/MS product assay; assay type: biochemical; details: pH 8.0, 30 °C, 100 mM Tris-HCl, 10 mM MgCl2, 1 mM DTT; 4.4 mM substrate; dehydration to KDPG
T1 construct: full length, His-tagged (pET28), E. coli BL21(DE3), Ni-NTA
T1 sequence (P0ADF6 1-603): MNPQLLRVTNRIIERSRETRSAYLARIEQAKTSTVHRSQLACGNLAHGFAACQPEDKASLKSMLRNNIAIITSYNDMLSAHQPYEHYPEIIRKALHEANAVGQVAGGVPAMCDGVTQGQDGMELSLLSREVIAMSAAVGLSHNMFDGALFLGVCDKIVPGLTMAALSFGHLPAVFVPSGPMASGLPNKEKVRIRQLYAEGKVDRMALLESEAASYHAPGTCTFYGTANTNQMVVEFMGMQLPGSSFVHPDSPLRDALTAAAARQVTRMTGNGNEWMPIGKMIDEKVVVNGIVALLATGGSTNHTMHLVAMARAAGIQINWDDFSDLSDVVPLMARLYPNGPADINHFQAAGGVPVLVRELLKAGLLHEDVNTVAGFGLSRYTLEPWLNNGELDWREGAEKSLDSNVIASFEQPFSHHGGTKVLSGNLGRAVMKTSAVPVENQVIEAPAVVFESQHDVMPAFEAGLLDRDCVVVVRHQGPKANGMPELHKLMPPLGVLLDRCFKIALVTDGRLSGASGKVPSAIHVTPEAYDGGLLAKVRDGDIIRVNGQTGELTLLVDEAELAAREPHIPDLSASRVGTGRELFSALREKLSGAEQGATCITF

[1] = target: T2, GmEDA (soybean KDPG aldolase, pseudomature) (Glycine max, UniProt K7LFS1); test: LCMS/MS product assay, Lineweaver-Burk; assay type: biochemical; details: pH 8.0, 30 °C, 50 mM KH2PO4, 100 mM NaCl, 1 mM DTT; substrate 0.25-1 mM; aldol cleavage
T2 construct: gene LOC100800025
T2 sequence (K7LFS1 1-256): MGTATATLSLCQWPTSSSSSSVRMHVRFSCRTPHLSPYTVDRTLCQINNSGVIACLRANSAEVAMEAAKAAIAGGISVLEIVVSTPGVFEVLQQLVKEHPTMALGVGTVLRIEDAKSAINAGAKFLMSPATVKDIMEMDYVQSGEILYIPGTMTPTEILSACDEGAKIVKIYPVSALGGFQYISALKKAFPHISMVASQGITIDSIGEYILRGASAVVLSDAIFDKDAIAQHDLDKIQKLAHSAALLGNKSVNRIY

E. coli DHAD = target: T3, E. coli DHAD (Escherichia coli, UniProt P05791); test: LCMS/MS product assay; assay type: biochemical; details: pH 8.0, 30 °C, 100 mM Tris-HCl, 10 mM MgCl2, 1 mM DTT; 4.4 mM substrate; dehydration to 2-ketoisovalerate
T3 construct: gene ilvD; full length, His-tagged (pET28), E. coli BL21(DE3), Ni-NTA

E. coli EDA = E. coli EDA (Escherichia coli, UniProt P0A955); details: pH 8.0, 30 °C, 50 mM KH2PO4, 100 mM NaCl, 1 mM DTT; aldol cleavage to GAP and pyruvate
Sequence of E. coli EDA (P0A955 whole entry): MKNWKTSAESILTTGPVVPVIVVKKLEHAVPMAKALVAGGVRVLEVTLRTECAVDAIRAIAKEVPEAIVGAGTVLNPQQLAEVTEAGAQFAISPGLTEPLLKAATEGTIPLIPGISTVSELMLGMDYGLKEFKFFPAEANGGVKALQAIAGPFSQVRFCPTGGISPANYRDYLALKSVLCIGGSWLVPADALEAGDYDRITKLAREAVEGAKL

T3 sequence (P05791 2-616): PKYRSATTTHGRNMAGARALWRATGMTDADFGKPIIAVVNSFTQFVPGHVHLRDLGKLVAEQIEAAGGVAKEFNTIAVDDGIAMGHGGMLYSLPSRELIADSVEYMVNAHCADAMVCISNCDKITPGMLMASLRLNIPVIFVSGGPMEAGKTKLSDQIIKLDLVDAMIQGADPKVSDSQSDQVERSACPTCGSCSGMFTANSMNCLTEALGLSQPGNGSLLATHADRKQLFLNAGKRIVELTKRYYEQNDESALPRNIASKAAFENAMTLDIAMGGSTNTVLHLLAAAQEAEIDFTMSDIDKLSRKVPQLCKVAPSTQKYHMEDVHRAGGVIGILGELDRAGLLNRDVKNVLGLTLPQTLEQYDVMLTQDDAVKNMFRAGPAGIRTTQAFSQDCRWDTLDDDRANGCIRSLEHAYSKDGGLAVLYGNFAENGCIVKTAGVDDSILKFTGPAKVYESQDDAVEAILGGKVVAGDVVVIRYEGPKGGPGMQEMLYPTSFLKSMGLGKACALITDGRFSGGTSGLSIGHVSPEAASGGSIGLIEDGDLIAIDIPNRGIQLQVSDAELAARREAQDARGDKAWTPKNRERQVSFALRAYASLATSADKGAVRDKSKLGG

## O=C(O)[C@H](O)[C@@H](O)[C@H](O)[C@H](O)COP(=O)(O)O [6-PG]
E. coli EDD
  LCMS/MS product assay: E. coli EDD catalyzed the expected dehydration of 6-PG to KDPG

## O=P(O)(O)OC[C@H]1OC(O)(COP(=O)(O)O)[C@@H](O)[C@@H]1O (stereo partly drawn) [D-fructose-1,6-bisphosphate]
[1]
  Km: 1260 µM

## CC(C)(O)[C@@H](O)C(=O)O [DIV]
E. coli DHAD
  LCMS/MS product assay: soybean and E. coli DHAD both converted DIV to its corresponding dehydration product

## O=C(O)C(=O)C[C@H](O)[C@H](O)COP(=O)(O)O [KDPG]
[1]
  Km: 310 µM
E. coli EDA
  LCMS/MS and GC-MS product assay: enzymatic assay of soybean and E. coli EDA when KDPG was supplied as substrate
